Patent publication EP2002836B1, “Cyclocondensed azaindoles active as kinase inhibitors” (Nerviano Medical Sciences S.r.l., priority 2007, dated 2008)

Experiments:
[1] = target: T1, AKT2 (Homo sapiens, UniProt P31751); experiment: Biochemical assay for inhibitors of AKT2 kinase activity (33P trans-phosphorylation, Dowex resin); conditions: 10 nM enzyme, 396 microM ATP, 8.5 microM peptide substrate; read-out: AKT2 IC50 (µM) Biochem assay
T1 construct: made in house
Experimental: (§1) The N-terminal GST fusion proteins used for the assays were prepared according to the methods described in Kumar, C. C. Biochem. Biophys. ACTA 2001, 1526, 257-268, and in Alessi, D. R.. Biochem. J. 1998 331, 299-308.
(§2) The in vitro kinase inhibition assay was conducted in the same way as described for AKT1. The kinase assay was run with a final enzyme concentration of 10 nM, in the presence of 396 microM ATP, 0.88 nM ^33P-γ-ATP and 8.5 microM substrate, a carboxy-terminally biotinylated peptide of the following sequence: ARKRERTYSFGHHA-biotin. The peptide was obtained in batches of >95% peptide purity from PRIMM labs Inc. (Boston MA, USA).

[2] = target: AKT3 (Homo sapiens, UniProt Q9Y243); experiment: Biochemical assay for inhibitors of AKT3 kinase activity (33P trans-phosphorylation, Dowex resin); conditions: 1 nM enzyme, 180 microM ATP, 28.5 microM peptide substrate; read-out: AKT3 IC50 (µM) Biochem assay
Experimental: as §1
as §2, with “1” for “10”, “180” for “396”, “28.5” for “8.5”

[3] = target: AKT1 (Homo sapiens, UniProt P31749); experiment: Biochemical assay for inhibitors of AKT1 kinase activity (33P trans-phosphorylation, Dowex resin); design: made in house; conditions: 5 nM enzyme, 132 microM ATP, 30 microM peptide substrate; read-out: AKT1 IC50 (µM) Biochem assay
Experimental: as §1
The inhibitory activity of putative kinase inhibitors and the potency of selected compounds were determined using a trans-phosphorylation assay.
A specific substrate was incubated with the kinase in appropriate buffer conditions in the presence of ATP traced with ^33P-γ-ATP (gamma phosphate-labeled, Redivue™ Code Number AH9968, 1000-3000Ci/mmole, Amersham Biosciences Piscataway, NJ, USA), optimal cofactors and test compound.
At the end of the phosphorylation reaction, more than 98% cold and radioactive ATP were captured by an excess of Dowex ion exchange resin. The resin was allowed to settle to the bottom of reaction wells by gravity. Supernatant, containing substrate peptide, was subsequently withdrawn and transferred into a counting plate, and radioactivity (corresponding to phosphate incorporated into peptide) was evaluated by β-counting.
Kinase buffer was composed of 50 mM TRIS pH 7.5 containing10 mM MgCl2, 1 mM DTT, 3 microM Na3VO4, and 0.2 mg/mL BSA. 3X KB is buffer of the same composition and pH as KB, but with three times the concentration of each component. iii.Assay conditions (final concentrations) for AKT1.
as §2, with “The” for “The in vitro kinase inhibition assay was conducted in the same way as described for AKT1. The”, “5” for “10”, “132” for “396”, “30” for “8.5”
The "test" mixture of 15 microL consisting of: • 1) 5 µl/well of 3x Enzyme mix (done in Kinase Buffer 3X), • 2) 5 µl/well of 3x substrate and ATP mix (done in ddH2O), together with ^33P-γ-ATP, • 3) 5 µl/well of 3x test compounds (diluted into ddH2O - 3% DMSO).
For % inhibition studies, dilution plates at 1 mM, 10 microM and 100 microM were prepared in 100% DMSO, then diluted to 3X final desired concentration (30, 3 and 0.3 microM) in ddH2O, 3% DMSO. A Multimek 96 (Beckman Coulter, Inc. 4300 N. Harbor Boulevard, P.O. Box 3100 Fullerton, CA 92834-3100 USA) was used for compound pipetting into test plates.
For IC50 determination, starting solutions of 30 microM compound in 3% DMSO were derived from 1 mM/100% DMSO stock solutions. These 30 microM starting solutions were used for generation of a further 9 serial 1/3 dilutions in ddH20, 3% DMSO, so as to generate a 10-point dilution curve at 3X the final assay concentration. Serial dilution was conducted in 96-well plates using a Biomek 2000 (Beckman Coulter) system. Dilution curves of 7 compounds/plate were prepared, and each plate also included a 10-point dilution curve of Staurosporine, as well as several negative and positive control wells.
384-well plates, V bottom (test plates) are prepared with 5 µl of the compound dilution (3X) and then placed onto a PlateTrak 12 robotized station (Perkin Elmer; the robot has one 384-tips pipetting head for starting the assay plus one 96-tips head for dispensing the resin) together with one reservoir for the Enzyme mix (3X) and one for the ATP mix (3X).
At the start of the run, the robot aspirates 5 µl of ATP mix, makes an air gap inside the tips (3 µl) and aspirates 5 µl of AKT mix. The following dispensation into the plates allows the kinase reaction to start upon 3 cycles of mixing, done by the robot itself.
The robot incubates the plates for 60 minutes at room temperature, and then stops the reaction by pipetting 70 µl of dowex resin suspension into the reaction mix. Three cycles of mixing are done immediately after the addition of the resin.
Another mixing cycle is performed after all the plates are stopped, this time using normal tips: the plates are then allowed to rest for about one hour in order to maximize ATP capture. […]

Sequence of AKT3 (Q9Y243 2-479): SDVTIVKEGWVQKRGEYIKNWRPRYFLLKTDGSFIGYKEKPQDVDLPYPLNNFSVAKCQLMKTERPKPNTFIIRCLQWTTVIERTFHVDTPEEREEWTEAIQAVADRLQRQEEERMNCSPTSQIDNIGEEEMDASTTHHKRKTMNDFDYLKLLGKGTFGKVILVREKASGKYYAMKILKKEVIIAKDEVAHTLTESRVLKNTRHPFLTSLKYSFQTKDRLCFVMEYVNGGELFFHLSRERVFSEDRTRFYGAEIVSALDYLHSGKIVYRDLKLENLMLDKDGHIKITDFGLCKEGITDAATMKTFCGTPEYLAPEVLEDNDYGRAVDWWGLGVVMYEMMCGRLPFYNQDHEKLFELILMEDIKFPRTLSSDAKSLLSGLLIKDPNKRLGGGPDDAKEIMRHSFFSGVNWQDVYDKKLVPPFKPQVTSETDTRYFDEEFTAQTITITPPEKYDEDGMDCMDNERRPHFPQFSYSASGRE
Sequence of AKT1 (P31749 whole entry): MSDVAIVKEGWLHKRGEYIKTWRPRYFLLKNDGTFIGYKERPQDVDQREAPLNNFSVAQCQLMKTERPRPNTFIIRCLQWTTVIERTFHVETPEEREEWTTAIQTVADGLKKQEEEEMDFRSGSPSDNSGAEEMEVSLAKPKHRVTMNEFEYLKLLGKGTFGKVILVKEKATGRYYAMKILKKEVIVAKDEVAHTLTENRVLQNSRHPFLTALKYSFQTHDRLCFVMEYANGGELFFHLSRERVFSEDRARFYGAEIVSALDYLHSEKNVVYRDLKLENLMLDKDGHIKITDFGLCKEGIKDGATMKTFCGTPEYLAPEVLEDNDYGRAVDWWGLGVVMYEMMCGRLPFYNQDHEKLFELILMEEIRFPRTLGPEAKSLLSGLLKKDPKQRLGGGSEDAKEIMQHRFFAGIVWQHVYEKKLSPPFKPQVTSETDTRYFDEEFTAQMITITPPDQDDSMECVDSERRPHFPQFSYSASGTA
T1 sequence (P31751 whole entry, species assumed): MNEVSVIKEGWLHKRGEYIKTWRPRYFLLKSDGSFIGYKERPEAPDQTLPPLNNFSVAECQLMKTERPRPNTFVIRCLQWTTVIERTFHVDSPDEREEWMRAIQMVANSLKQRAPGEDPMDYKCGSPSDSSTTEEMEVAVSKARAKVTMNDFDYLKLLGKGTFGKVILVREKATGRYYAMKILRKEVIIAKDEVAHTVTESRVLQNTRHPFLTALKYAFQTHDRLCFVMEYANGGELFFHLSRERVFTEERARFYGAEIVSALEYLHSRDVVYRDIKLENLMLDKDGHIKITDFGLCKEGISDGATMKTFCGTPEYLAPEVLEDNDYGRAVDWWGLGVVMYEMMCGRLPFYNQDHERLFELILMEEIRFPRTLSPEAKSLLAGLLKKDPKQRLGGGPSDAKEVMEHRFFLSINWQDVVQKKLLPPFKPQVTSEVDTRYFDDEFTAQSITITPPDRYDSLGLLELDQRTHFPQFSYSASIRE

| Structure (SMILES) | IC50 [1] [µM] | IC50 [2] [µM] | IC50 [3] [µM] |
| --- | --- | --- | --- |
| NC[C@H](Cc1ccccc1)NC(=O)C1=Cc2c[nH]c3nccc(c23)CC1 [Cpd. 1, N-[(1S)-2-amino-1-benzylethyl]-6,7-dihydro-2H-2,3-diazabenzo[cd]azulene-8-carboxamide] | 0.266 | 0.032 | 0.05 |
| CC(=O)N1CC(C(=O)N[C@H](CN)Cc2ccccc2)=Cc2c[nH]c3nccc1c23 [Cpd. 3, 6-acetyl-N-[(1S)-2-amino-1-benzylethyl]-6,7-dihydro-2H-2,3,6-triazabenzo[cd]azulene-8-carboxamide] | 1.99 | 0.187 | 0.184 |
| O=C(N[C@H](CN1CCCC1)c1ccccc1)C1=Cc2c[nH]c3nccc(c23)CC1 [Cpd. 6, N-[(1S)-1-phenyl-2-pyrrolidin-1-ylethyl]-6,7-dihydro-2H-2,3-diazabenzo[cd]azulene-8-carboxamide] | 0.362 | 0.043 | 0.121 |
| NC[C@H](Cc1ccccc1)NC(=O)C1=Cc2c[nH]c3nccc(c23)NC1 [compound 2, N-[(1S)-2-amino-1-benzylethyl]-6,7-dihydro-2H-2,3,6-triazabenzo[cd]azulene-8-carboxamide] | 0.155 | 0.041 | 0.017 |
